Assay [1] has as its system phrenic long-term facilitation (pLTF). Nature of the assay: pLTF following intermittent hypoxia after intrathecal pretreatment. Type of assay: in vivo, rat. Conditions: for effect on pLTF: one anesthetized rat each, intrathecal, 30 min prior to intermittent hypoxia, UO126 0.4 mg, KN62/KN93 2 mg.
Description: The phrenic nerve was dissected, cut distally and desheathed. A laminectomy was performed over C2, and a silicone catheter (2 French, Access Technologies; Skokie, Ill.) connected to a 50 μl glass syringe (Hamilton; Reno Nev.) was advanced through a small hole in the dura at C2, such that the tip of the catheter lay over C4-C5. Following surgery, rats were converted to urethane anesthesia (1.6 g/kg, i.v.) and were paralyzed with pancuronium bromide (2.5 mg/kg). Supplemental doses of urethane were given as necessary. […] End-tidal PCO2 was monitored using a flow-through capnograph (Novametrix, Wallingford, Conn.). Periodically throughout the protocol, arterial blood was collected (0.3 ml) in a heparinized syringe to ensure that values remained constant (PaO2<45 mmHg in hypoxia, PaO2>120 mmHg in hyperoxia, PaCO2±1 mmHg from baseline value). Arterial PCO2 was corrected to the target range by adjusting ventilator frequency as necessary.
Ninety minutes after surgery, stable integrated phrenic discharge was established in hyperoxia (baseline; 50% O2, PaO2>120 mmHg), with CO2 added to the inspired gas so that PaCO2 was 2-3 mmHg above the CO2 apneic threshold (45 mmHg). In rats receiving intrathecal injections of vehicle or drug solutions, a bolus injection of 10-15 μl was given, and 30-35 min were allowed for drugs to penetrate the spinal cord prior to beginning protocols. Blood gases were measured before, during, and 15, 30 and 60 min post-intermittent hypoxia or hypercapnia, or at corresponding times in control rats (without hypoxia or hypercapnia).
Intrathecal injections of K252a were performed prior to intermittent hypoxia; K252a was prepared as described above. Intrathecal K252a (n=6) or vehicle (DMSO+artificial CSF; n=5) was delivered 30 min prior to intermittent hypoxia, and phrenic discharge was monitored continuously for 60 min post-intermittent hypoxia.
For assay [2], the system named is phrenic motor output. The assay is described as follows: Phrenic activity following intrathecal BDNF injections. Type of assay: in vivo, rat. Conditions: 90 min post-injection. On the procedure:
(§1) Surgical procedures have been described elsewhere (7). Rats were anesthetized with isoflurane (2.5% in 50% O2), vagotomized and pump-ventilated (Harvard Apparatus, South Natick, Mass.). The phrenic nerve was dissected, cut distally and desheathed. A laminectomy was performed over C2, and a silicone catheter (2 French, Access Technologies; Skokie, Ill.) connected to a 50 μl glass syringe (Hamilton; Reno Nev.) was advanced through a small hole in the dura at C2, such that the tip of the catheter lay over C4-C5. Following surgery, rats were converted to urethane anesthesia (1.6 g/kg, i.v.) and were paralyzed with pancuronium bromide (2.5 mg/kg). Supplemental doses of urethane were given as necessary. […] End-tidal PCO2 was monitored using a flow-through capnograph (Novametrix, Wallingford, Conn.). […]
Respiratory-related activity was recorded in the phrenic nerve with a bipolar silver electrode. […] Phrenic activity was digitized, recorded and analyzed using the WINDAQ data acquisition system (DATAQ Instruments, Akron, Ohio).
An intrathecal catheter was placed and 10-13 μl solutions of BDNF (0.1 μg, n=5) or vehicle (artificial CSF+0.1% BSA; n=5) were injected. To determine if intrathecal BDNF injections unintentionally spread beyond the spinal cord to cranial motor pools, the hypoglossal nerve was also dissected, desheathed and recorded. […]

Assay [3] has as its system phrenic burst amplitude. Type of assay: in vivo, rat. On the procedure:
To determine if MAP kinase activation is sufficient to facilitate phrenic burst amplitude, one anesthetized rat was intrathecally injected with anisomycin ([…]; 20 mM), a protein synthesis inhibitor that also non-specifically activates MAP kinases.

Assay [4] concerns BDNF protein concentration in ventral C3-C5. Nature of the assay: Ventral C3-C5 BDNF protein concentration (ELISA) after intermittent hypoxia, intrathecal drug pretreatment. Type of assay: in vivo, rat. Conditions: 60 min post-intermittent hypoxia, intrathecal methysergide 250 microgram/kg or emetine 1 μg/kg 30 min prior. On the procedure:
as §1
Ninety minutes after surgery, stable integrated phrenic discharge was established in hyperoxia (baseline; 50% O2, PaO2>120 mmHg), with CO2 added to the inspired gas so that PaCO2 was 2-3 mmHg above the CO2 apneic threshold (45 mmHg). […] Blood gases were measured before, during, and 15, 30 and 60 min post-intermittent hypoxia or hypercapnia, or at corresponding times in control rats (without hypoxia or hypercapnia). […]
Background: An ELISA detects its analyte on a solid surface through an enzyme-linked reagent.

Assay [5] deals with phrenic LTF. The assay is described as follows: pLTF following sustained hypoxia after protein phosphatase inhibition. Type of assay: in vivo, rat. Conditions: okadaic acid 0.15 mg; 20 mM intrathecally to C4 30 min prior to sustained hypoxia (25 min). The protocol: Air, O2 and/or N2 were mixed to achieve the desired pattern of inspired oxygen concentration. […] Control groups receiving similar surgery or treatments, but not receiving hypoxia, […].
Accordingly, in one anesthetized rat, […] okadaic acid (0.15 mg; 20 mM), a protein phosphatase 1/2A (PP1 and PP2A) inhibitor, was delivered intrathecally to C4 30 min prior to sustained hypoxia (25 min). […] This finding has been successfully repeated in three additional rats.

In assay [6] the target is TrkB receptor (rat) (UniProt Q63604). The assay is described as follows: cell-based or functional assay.
Chain of TrkB receptor (rat) (Q63604 32-821): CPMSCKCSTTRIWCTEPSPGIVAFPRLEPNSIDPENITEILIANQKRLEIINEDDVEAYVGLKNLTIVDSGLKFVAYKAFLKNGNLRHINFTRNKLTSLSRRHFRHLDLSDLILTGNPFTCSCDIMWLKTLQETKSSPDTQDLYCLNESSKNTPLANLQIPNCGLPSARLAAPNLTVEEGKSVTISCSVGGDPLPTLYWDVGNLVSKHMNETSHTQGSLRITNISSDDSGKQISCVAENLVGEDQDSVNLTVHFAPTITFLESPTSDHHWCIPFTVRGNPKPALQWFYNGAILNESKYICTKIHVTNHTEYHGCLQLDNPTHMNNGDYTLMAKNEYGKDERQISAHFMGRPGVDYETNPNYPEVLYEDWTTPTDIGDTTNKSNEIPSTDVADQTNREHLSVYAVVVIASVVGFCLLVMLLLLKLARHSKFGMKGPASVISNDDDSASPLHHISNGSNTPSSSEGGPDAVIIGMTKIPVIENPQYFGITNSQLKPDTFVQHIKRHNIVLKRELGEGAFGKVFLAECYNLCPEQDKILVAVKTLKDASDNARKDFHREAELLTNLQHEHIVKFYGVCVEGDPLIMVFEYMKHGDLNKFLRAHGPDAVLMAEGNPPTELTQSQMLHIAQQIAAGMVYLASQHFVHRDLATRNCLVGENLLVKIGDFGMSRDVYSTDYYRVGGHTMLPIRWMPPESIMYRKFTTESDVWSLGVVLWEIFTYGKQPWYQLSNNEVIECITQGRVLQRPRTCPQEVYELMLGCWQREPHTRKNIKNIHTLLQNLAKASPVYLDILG
For assay [7], the system named is hypoglossal nerve activity. Nature of the assay: Hypoglossal nerve activity following intrathecal BDNF injections. Conditions: intrathecal BDNF 0.1 μg; 90 min post-injection. Type of assay: in vivo, rat. On the procedure: An intrathecal catheter was placed and 10-13 μl solutions of BDNF (0.1 μg, n=5) or vehicle (artificial CSF+0.1% BSA; n=5) were injected. To determine if intrathecal BDNF injections unintentionally spread beyond the spinal cord to cranial motor pools, the hypoglossal nerve was also dissected, desheathed and recorded. […] In another group of rats, two intrathecal catheters were placed over C4, and a bolus injection of the tyrosine kinase inhibitor K252a was given 10 min prior to BDNF injection (BDNF+K252a; BDNF=0.1 μg; K252a=0.15 microgram, n=3). Recombinant human BDNF (Promega Corporation, Madison, Wis.) was dissolved in artificial CSF+0.1% bovine serum albumin (BSA). K252a (Calbiochem; San Diego, Calif.) was initially dissolved in dimethylsulfoxide (DMSO; 100 μg K252a in 1.5 ml DMSO) and frozen in 200 μl aliquots. Prior to experimentation, 0.8 ml artificial CSF was added to a 200 μl aliquot of K252a/DMSO solution, of which 10-15 μl was delivered intrathecally (final concentration of K252a=0.13-0.2 μg; 28 μM). Vehicle delivery was as described above (DMSO+artificial CSF), except K252a was not added. At 30, 60 and 90 min post-injection, arterial blood gases were analyzed to ensure that PaO2 and PaCO2 levels were similar to pre-injection values.

Counter-ions that a name gives are not always drawn.

In the case of `COC(=O)[C@@]1(O)C[C@H]2O[C@]1(C)n1c3ccccc3c3c4c(c5c6ccccc6n2c5c31)C(=O)NC4` [K252a], the “phrenic burst amplitude increase from baseline (pLTF)” value in assay [1] (60 min post-intermittent hypoxia, intrathecal K252a 0.13-0.2 μg 30 min prior) was 25±6%. The “BDNF-induced phrenic facilitation after K252a pre-treatment, change from baseline” value in assay [2] (intrathecal K252a 10 min prior to BDNF 0.1 μg) is given as 9±10%.

For the molecule `CN([C@@H](Cc1ccc(OS(=O)(=O)c2cccc3cnccc23)cc1)C(=O)N1CCN(c2ccccc2)CC1)S(=O)(=O)c1cccc2cnccc12` [KN62], the “effect on pLTF” value in assay [1] was “did not block pLTF”.

Regarding `COc1ccc(S(=O)(=O)N(CCO)c2ccccc2CN(C)C/C=C/c2ccc(Cl)cc2)cc1` [KN93], the “effect on pLTF” value in assay [1] is “did not block pLTF”.

Regarding `N#CC(=C(/N)Sc1ccccc1N)/C(C#N)=C(/N)Sc1ccccc1N` [UO126], the “effect on pLTF” value in assay [1] is “blocked pLTF”. The “effect of pretreatment on anisomycin-induced increase in phrenic amplitude” value in assay [3] (UO126 0.4 mg, 100 mM pretreatment, n=1) is listed as “prevented the effect”.

As to `COc1ccc(C[C@H]2NC[C@H](O)[C@H]2OC(C)=O)cc1` [anisomycin], the “phrenic burst amplitude increase above pre-injection levels” value in assay [3] (one anesthetized rat, intrathecal anisomycin 100 mg, 20 mM, thirty min post-injection) was 60%.

As to `CC[C@H]1CN2CCc3cc(OC)c(OC)cc3[C@@H]2C[C@@H]1C[C@H]1NCCc2cc(OC)c(OC)cc21` [emetine], the “change in ventral cervical BDNF concentration from corresponding drug control” value in assay [4] is listed as 19±11%.

Consider `CC[C@@H](CO)NC(=O)[C@@H]1C=C2c3cccc4c3c(cn4C)C[C@H]2N(C)C1` [methysergide, methysergide maleate], for which, in assay [4], the “change in ventral cervical BDNF concentration from corresponding drug control” value is recorded as −10±8%.

For `C=C1[C@@H](O)[C@@H]2O[C@]3(CC[C@H](/C=C/[C@@H](C)[C@@H]4CC(C)=C[C@@]5(O[C@H](C[C@@](C)(O)C(=O)O)CC[C@H]5O)O4)O3)CC[C@H]2O[C@@H]1[C@@H](O)C[C@H](C)[C@H]1O[C@@]2(CCCCO2)CC[C@H]1C` [okadaic acid], the “pLTF 60 min following sustained hypoxia” value in assay [5] is recorded as “a modest pLTF was apparent”.

As to “Recombinant human BDNF (Promega Corporation) (from UniProt P23560 129-247) (ligand)”, the integrated phrenic discharge (percent change from baseline) 90 min after intrathecal BDNF injection in anesthetized rats (% above baseline) in assay [6] amounted to 125.

B1: BDNF: Recombinant human BDNF (Promega), brain-derived neurotrophic factor (protein)
chain: HSDPARRGELSVCDSISEWVTAADKKTAVDMSGGTVTVLEKVPVSKGQLKQYFYETKCNPMGYTKEGCRGIDKRHWNSQCRTTQSYVRALTMDSKKRIGWRFIRIDTSCVCTLTIKRGR
In the case of B1, the “hypoglossal nerve activity, change from baseline” value in assay [7] came to 30±17%. Further, in assay [2] (intrathecal BDNF 0.1 μg), the “integrated phrenic discharge, change above baseline” value is recorded as 125±25%.

The values above are taken from patent US20090186844A1, “SiRNA DELIVERY INTO MAMMALIAN NERVE CELLS” (priority 2003, published 2009).
